{
  "source": "patent US20250368638A1",
  "about": "“BICYCLIC INHIBITORS OF NICOTINAMIDE […], COMPOSITIONS AND USES THEREOF” (President and Fellows of Harvard College, priority 2021, published 2025)",
  "key": {"[1]": {"test": "Metabolic stability in pooled human liver microsomes", "protocol": "A master solution was prepared according to the following table.\n40 μL of 10 mM NADPH solution was added to each well. The final concentrations of NADPH was 1 mM. The mixture was pre-warmed at 37° C. for 5 minutes. The negative control samples were prepared by replacing NADPH solutions with 40 μL of ultra-pure H2O. The negative control was used to exclude the misleading factor that resulted from instability of chemical itself. Samples with NADPH were prepared in duplicate. Negative controls were prepared in singlet.\nThe reaction was started with the addition of 4 μL of 200 μM control compound or test compound solutions. […] Samples were centrifuged at 3, 220 g for 40 minutes. Aliquot of 90 μL of the supernatant was mixed with 90 μL of ultra-pure H2O and then used for LC-MS/MS analysis.\nFor metabolite standard samples: 1 μL of 400 μM working solution was added to 89 μL master solution following by adding 400 μL of cold acetonitrile with internal standard (IS) (100 nM alprazolam, 200 nM Imipramine, 200 nM labetalol and 2 μM ketoprofen). Then 10 μL of 10 mM NADPH solution or ultra-pure H2O was added to the mixture. Samples were centrifuged at 3,220 g for 40 minutes to precipitate protein. Aliquots of 90 μL supernatant diluted by 90 μL of water was used for LC-MS/MS analysis."}, "[2]": {"test": "Mouse PK studies of 11 (plasma)", "format": "in vivo, Female C57B16/N mice", "details": "for T1/2: formulation a (0.2% Tween 80, 10% PEG300); for MRT inf: read-out: MRTInf—obs", "source_text": "(§1) Doses were freshly prepared on the day of dosing. Vehicle compositions of each dose are listed below. […] Adjust pH with 1 N hydrochloric acid to obtain a clear solution or (b) 0.2% Tween 80/20% PEG-300 in water. Adjust pH with 1 N hydrochloric acid to obtain a clear solution\n(§2) Then the samples were vortexed for 30 s."}, "[3]": {"system": "1-MNA", "test": "Plasma 1-MNA in mice after dosing with 11 (PK/PD)", "format": "in vivo, Female C57B16/N mice", "source_text": "as §1, §2"}, "[4]": {"system": "CYP1A2, CYP2A6, CYP2B6, CYP2C8, CYP2C9, CYP2C19, CYP2D6, CYP2E and CYP3A4", "test": "CYP inhibition studies in human liver microsomes", "format": "in vitro ADME", "details": "up to 100 μM", "protocol": "1. 1 μL of multiple concentrations of test compound or positive control compound (CYP1A2: furafylline, CYP2A6: tranylcypromine, CYP2B6: ketoconazole, CYP2C8: quercetin, CYP2C9: sulfaphenazole, CYP2C19: N-3-benzylnirvanol, CYP2D6: quinidine, CYP2E1: disulfiram and CYP3A4: ketoconazole) was transferred to the “Compound Plate”. The concentrations of test compounds were 0, 0.6, 2, 6, 20, 60, 2000, 6000 and 20000 μM. The concentrations of positive control compounds were 0, 0.2, 1, 2, 10, 50, 200, 2000 and 10000 μM.\n2. The master solution was prepared according to the Table 9A and 9B, and pre-warmed in the water bath at 37° C. for 5 minutes. 179 μL of master solutions were transferred to “Incubation Plate”. In the mixed system, the final concentrations of test compound were 0, 0.003, 0.01, 0.03, 0.1, 0.3, 10, 30 & 100 μM, and the final concentrations of positive control compound were 0, 0.001, 0.005, 0.01, 0.05, 0.25, 1, 10 & 50 μM. All experiments were performed in duplicate.\n3. The reaction was started with the addition of 20 μL of 10 mM NADPH solution at the final concentration of 1 mM and carried out at 37° C.\n4. […]\n5. […] The formation of metabolites was analyzed by using LC-MS/MS. […]\n6. […] The formation of metabolites were analyzed by using LC-MS/MS. […] The IC50 shift was calculated for evaluating the mechanism of the inhibition."}, "[5]": {"details": "female, C57B16/N, mouse, plasma, iv, 1 mg/kg, 1 mg/kg IV"}, "[6]": {"details": "female, C57B16/N, mouse, plasma, po, 10 mg/kg, 10 mg/kg PO, formulation a"}, "[7]": {"details": "female, C57B16/N, mouse, plasma, po, 50 mg/kg, 50 mg/kg PO, formulation a"}, "[8]": {"details": "female, C57B16/N, mouse, plasma, po, 50 mg/kg, 50 mg/kg PO, formulation b"}, "[9]": {"details": "female, C57B16/N, mouse, plasma, po, title: single 100 mg/kg dosage, 50 mg/kg^b, formulation b"}, "[10]": {"details": "female, C57B16/N, mouse, plasma, 1 mg/kg IV"}, "[11]": {"details": "10 mg/kg PO of 11, formulation a"}},
  "note": "Where two headings read alike, the source gives them in different places.",
  "data": [
    {"smiles": "C[C@@H]1Cc2cc(C(N)=O)cnc2N1", "note": "[Compound 11, (2R)-2-methyl-2,3-dihydro-1H-pyrrolo[2,3-b]pyridine-5-carboxamide]", "values": [
      {"measurement": "Remaining (%) at 60 minutes", "setting": "[1]; Human liver microsomes", "result": 97.33, "unit": "%"},
      {"measurement": "CLint scaled at 2 μM", "setting": "[1]; human, microsomes", "result": "< 6.79", "unit": "mL/min/kg"},
      {"measurement": "half-life at 2 μM", "setting": "[1]; human, microsomes", "result": "> 256", "unit": "min"},
      {"measurement": "microsomal CLint at 2 μM", "setting": "[1]; human, microsomes", "result": "< 5.42", "unit": "µL/min/mg"},
      {"measurement": "AUClast/D", "setting": "[2]; 1 mg/kg IV", "result": 464, "unit": "kg·ng·h/mL/mg"},
      {"measurement": "AUC—%Extrap—obs", "setting": "[2]; 1 mg/kg IV", "result": 0.574, "unit": "%"},
      {"measurement": "Cl_obs", "setting": "[2]; 1 mg/kg IV", "result": 36.1, "unit": "mL/min/kg"},
      {"measurement": "AUClast/D", "setting": "[2]; 10 mg/kg PO, formulation a", "result": 58.2, "unit": "kg·ng·h/mL/mg"},
      {"measurement": "AUC—%Extrap—obs", "setting": "[2]; 10 mg/kg PO, formulation a", "result": 1.90, "unit": "%"},
      {"measurement": "F_last", "setting": "[2]; 10 mg/kg PO, formulation a", "result": 12.7, "unit": "%"},
      {"measurement": "T1/2", "setting": "[2]; 10 mg/kg PO", "result": 1.309, "unit": "h"},
      {"measurement": "AUClast/D", "setting": "[2]; 50 mg/kg PO, formulation a", "result": 1020, "unit": "kg·ng·h/mL/mg"},
      {"measurement": "AUC—%Extrap—obs", "setting": "[2]; 50 mg/kg PO, formulation a", "result": 0.258, "unit": "%"},
      {"measurement": "Cmax", "setting": "[2]; 50 mg/kg PO, formulation a", "result": 22500, "unit": "ng/mL"},
      {"measurement": "T1/2", "setting": "[2]; 50 mg/kg PO", "result": 2.89, "unit": "h"},
      {"measurement": "AUClast/D", "setting": "[2]; 50 mg/kg PO, formulation b", "result": 865, "unit": "kg·ng·h/mL/mg"},
      {"measurement": "AUC—%Extrap—obs", "setting": "[2]; 50 mg/kg PO, formulation b", "result": 7.8, "unit": "%"},
      {"measurement": "AUC(0-inf)", "setting": "[2]; [5]", "result": 467, "unit": "ng·h/mL"},
      {"measurement": "AUC(0-t)", "setting": "[2]; [5]", "result": 464, "unit": "ng·h/mL"},
      {"measurement": "MRT inf", "setting": "[2]; [5]", "result": 0.427, "unit": "h"},
      {"measurement": "AUC(0-inf)", "setting": "[2]; [6]", "result": 593, "unit": "ng·h/mL"},
      {"measurement": "AUC(0-t)", "setting": "[2]; [6]", "result": 582, "unit": "ng·h/mL"},
      {"measurement": "MRT inf", "setting": "[2]; [6]", "result": 2.21, "unit": "h"},
      {"measurement": "AUC(0-inf)", "setting": "[2]; [7]", "result": 51300, "unit": "ng·h/mL"},
      {"measurement": "AUC(0-t)", "setting": "[2]; [7]", "result": 51100, "unit": "ng·h/mL"},
      {"measurement": "MRT inf", "setting": "[2]; [7]", "result": 2.5, "unit": "h"},
      {"measurement": "AUC(0-inf)", "setting": "[2]; [8]", "result": 46700, "unit": "ng·h/mL"},
      {"measurement": "AUC(0-t)", "setting": "[2]; [8]", "result": 43200, "unit": "ng·h/mL"},
      {"measurement": "MRT inf", "setting": "[2]; [8]", "result": 3.97, "unit": "h"},
      {"measurement": "AUC(0-t)", "setting": "[2]; [9]", "result": 116000, "unit": "ng·h/mL"},
      {"measurement": "Tmax", "setting": "[2]; [9]", "result": 15, "unit": "min"},
      {"measurement": "half-life", "setting": "[2]; [9]", "result": 206, "unit": "min"},
      {"measurement": "Cmax", "setting": "[2]; female, C57B16/N, mouse, plasma, po, title: single 100 mg/kg dosage, 50 mg/kg^b, formulation b, read-out: Cmax", "result": 43200, "unit": "ng/mL"},
      {"measurement": "C0", "setting": "[2]; [10]", "result": 2620, "unit": "ng/mL"},
      {"measurement": "half-life", "setting": "[2]; [10]", "result": 8.88, "unit": "min"},
      {"measurement": "Tmax", "setting": "[2]; female, C57B16/N, mouse, plasma, 10 mg/kg PO, formulation a", "result": 30, "unit": "min"},
      {"measurement": "Cmax", "setting": "[2]; female, C57B16/N, mouse, plasma, 10 mg/kg PO, formulation a, read-out: Cmax", "result": 412, "unit": "ng/mL"},
      {"measurement": "Tmax", "setting": "[2]; female, C57B16/N, mouse, plasma, 50 mg/kg PO, formulation a", "result": 15, "unit": "min"},
      {"measurement": "half-life", "setting": "[2]; female, C57B16/N, mouse, plasma, 50 mg/kg PO, formulation b (0.2% Tween 80, 20% PEG300)", "result": 246, "unit": "min"},
      {"measurement": "Cmax", "setting": "[2]; female, C57B16/N, mouse, plasma, 50 mg/kg PO, formulation b, read-out: Cmax", "result": 19000, "unit": "ng/mL"},
      {"measurement": "AUClast of 1-MNA", "setting": "[3]; 1 mg/kg IV of 11", "result": 1289, "unit": "ng·h/mL"},
      {"measurement": "AUClast of 1-MNA", "setting": "[3]; [11]", "result": 943, "unit": "ng·h/mL"},
      {"measurement": "Cmax of 1-MNA", "setting": "[3]; [11]", "result": 54.9, "unit": "ng/mL"},
      {"measurement": "Tmax of 1-MNA", "setting": "[3]; [11]", "result": 24.0, "unit": "h"},
      {"measurement": "AUClast of 1-MNA", "setting": "[3]; 50 mg/kg of 11, formulation a", "result": 653, "unit": "ng·h/mL"},
      {"measurement": "Cmax of 1-MNA", "setting": "[3]; 50 mg/kg of 11, formulation a", "result": 54.8, "unit": "ng/mL"},
      {"measurement": "Tmax of 1-MNA", "setting": "[3]; 50 mg/kg of 11, formulation a", "result": 24.0, "unit": "h"},
      {"measurement": "AUClast of 1-MNA", "setting": "[3]; 50 mg/kg of 11, formulation b", "result": 667, "unit": "ng·h/mL"},
      {"measurement": "Cmax of 1-MNA", "setting": "[3]; 50 mg/kg of 11, formulation b", "result": 70.1, "unit": "ng/mL"},
      {"measurement": "Tmax of 1-MNA", "setting": "[3]; 50 mg/kg of 11, formulation b", "result": 8.17, "unit": "h"},
      {"measurement": "Inhibition of CYP isoforms", "setting": "[4]", "result": "did not inhibit"}
    ]}
  ]
}
